According to patent US8124621B2, “Substituted 1-amino-4-phenyl-dihydroisoquinolines, methods for the production thereof, use thereof as a medicament, and medicaments containing them” (Sanofi-Aventis, priority 2006, dated 2012):
Structures can show the parent of a compound that is named as a salt.

Columns and labels:
NHE3 = biological target: T1, NHE3 (Homo sapiens, UniProt P48764); experiment: Determination of the NHE-inhibitory effect (recovery of intracellular pH after acidification, BCECF fluorescence); format: cell-based; details: pH recovery recorded for three minutes with NHE3; BCECF-loaded cells
T1 sequence (P48764 26-834): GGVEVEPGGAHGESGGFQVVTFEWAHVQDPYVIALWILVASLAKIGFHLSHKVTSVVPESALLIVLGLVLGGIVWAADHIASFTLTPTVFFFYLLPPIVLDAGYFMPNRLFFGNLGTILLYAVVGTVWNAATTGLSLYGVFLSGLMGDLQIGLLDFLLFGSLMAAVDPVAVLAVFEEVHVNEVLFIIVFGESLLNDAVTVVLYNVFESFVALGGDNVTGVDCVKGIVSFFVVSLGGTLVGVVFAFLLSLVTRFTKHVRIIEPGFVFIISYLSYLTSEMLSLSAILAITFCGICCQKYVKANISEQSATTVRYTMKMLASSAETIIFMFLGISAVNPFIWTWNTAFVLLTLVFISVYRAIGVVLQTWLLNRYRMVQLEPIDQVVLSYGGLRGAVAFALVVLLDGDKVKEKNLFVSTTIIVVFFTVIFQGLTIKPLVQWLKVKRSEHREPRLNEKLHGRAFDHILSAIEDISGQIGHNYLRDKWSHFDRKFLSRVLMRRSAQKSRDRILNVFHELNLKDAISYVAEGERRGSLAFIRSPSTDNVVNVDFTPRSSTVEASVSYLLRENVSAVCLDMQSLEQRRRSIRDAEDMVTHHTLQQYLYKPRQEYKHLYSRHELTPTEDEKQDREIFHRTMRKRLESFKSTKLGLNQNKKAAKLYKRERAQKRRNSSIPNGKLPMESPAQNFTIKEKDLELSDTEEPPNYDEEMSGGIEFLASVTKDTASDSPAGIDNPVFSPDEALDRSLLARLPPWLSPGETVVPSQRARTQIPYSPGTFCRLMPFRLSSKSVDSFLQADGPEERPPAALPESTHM
Experimental: Description of Assay: Determination of the NHE-Inhibitory Effect
In this assay, the recovery of the intracellular pH (pHj) after an acidification which occurs even under bicarbonate-free conditions with functional NHE was determined. To this end, the pHj was determined using the pH-sensitive fluorescent dye BCECF (Calbiochem, the precursor BCECF-AM was employed). The cells were initially loaded with BCECF. The BCECF fluorescence was determined in a ratio fluorescence spectrometer (Photon Technology International, South Brunswick, N.J., USA) with excitation wavelengths of 505 and 440 nm and an emission wavelength of 535 nm and converted into the pHj using calibration plots. The cells had been incubated in NH4Cl buffer (pH 7.4) for the BCECF loading (NH4Cl buffer: 115 mM NaCl, 20 mM NH4Cl, 5 mM KCl, 1 mM CaCl2, 1 mM MgSO4, 20 mM Hepes, 5 mM glucose, 1 mg/ml BSA; a pH of 7.4 was adjusted with 1 M NaOH). The intracellular acidification was induced by adding 975 μl of an NH4Cl-free buffer (see below) to 25 μl aliquots of the cells incubated in NH4Cl buffer. The subsequent rate of pH recovery was recorded for two minutes with NHE1, five minutes with NHE2 and three minutes with NHE3. To calculate the inhibitory power of the tested substances, the cells were initially investigated in buffers with which there was complete or absolutely no pH recovery. For complete pH recovery (100%), the cells were incubated in Na^+-containing buffer (133.8 mM NaCl, 4.7 mM KCl, 1.25 mM CaCl2, 1.25 mM MgCl2, 0.97 mM Na2HPO4, 0.23 mM NaH2PO4, 5 mM Hepes, 5 mM glucose, a pH of 7.0 was adjusted with 1 M NaOH). To determine the 0% value, the cells were incubated in an Na^+-free buffer (133.8 mM choline chloride, 4.7 mM KCl, 1.25 mM CaCl2, 1.25 mM MgCl2, 0.97 mM K2HPO4, 0.23 mM KH2PO4, 5 mM Hepes, 5 mM glucose, a pH of 7.0 was adjusted with 1 M NaOH). The substances to be tested were made up in the Na^+-containing buffer. The recovery of the intracellular pH at each tested concentration of a substance was expressed as a percentage of the maximum recovery. The IC50 of the respective substance for the individual NHE subtypes was calculated from the percentages of pH recovery using the Sigma Plot program.

Row | SMILES | melting point | IC50 (NHE3)
1 | NC1=NCC(c2ccccc2N)c2cc(Cl)ccc21 (centres unmarked) [Example 2, 1-Amino-4-(2-aminophenyl)-6-chloro-3,4-dihydroisoquinoline Hydrochloride] | – | 1.63 µM
2 | CNC1=NCC(c2ccc(N)cc2)c2cc(Cl)ccc21 (centres unmarked) [Example 3, 4-(4-Aminophenyl)-6-chloro-1-methylamino-3,4-dihydroisoquinoline Hydrochloride] | – | 4.93 µM

The next lines start with the values.

Row | melting point | IC50 (NHE3) | SMILES
3 | 278 to 284 °C | – | NC1=NCC(c2ccc(N)cc2)c2cc(Cl)ccc21 (centres unmarked) (as salt: hydrochloride) [Example 1A, 1-Amino-4-(4-aminophenyl)-6-chloro-3,4-dihydroisoquinoline Hydrochloride]
4 | – | 1.95 µM | NC1=NCC(c2ccc(N)cc2)c2cc(Cl)ccc21 (centres unmarked) [Example 1A, 1-Amino-4-(4-aminophenyl)-6-chloro-3,4-dihydroisoquinoline Hydrochloride]
5 | – | 8.24 µM | NC1=NCC(c2ccc(N)cc2)c2ccccc21 (centres unmarked) [Example 1B, 1-amino-4-(4-aminophenyl)-3,4-dihydroisoquinoline Hydrochloride]
